Values joined by “and” are separate entries in the source; they are usually repeats but may differ in a detail not shown here. Equal values may be shown once.
Legend:
[1] = tested on: Aβ from post mortem human AD brain; assay: Assay 9 Human brain amyloid solubilisation assay; assay type: biochemical; design: key: (+): effective at solubilising plaques at more than 1 concentration relative to PBS; (−): not effective at solubilising plaques relative to PBS; details: relative to PBS
Experimental: Assay 9. Human Brain Amyloid Solubilisation Assay
This assay was performed in order to assess the ability of a test compound to mobilise Aβ from the insoluble to the soluble phase of an extract of tissue from post mortem human AD brain.
Up to 0.5 g of plaque-bearing cortex without meninges was homogenized using a DIAX 900 homogenizer (Heudolph and Co, Kelheim, Germany) or other suitable device for three 30-second periods at full speed in up to 2 ml of ice-cold phosphate-buffered saline, pH 7.4. To obtain the phosphate-buffered saline-extractable fraction, the homogenate was centrifuged at 100,000×g for 30 min and the supernatant removed. […]
Tris-Tricine polyacrylamide gel electrophoresis was performed by loading appropriately diluted samples on to 10% to 20% gradient gels (Novex, San Diego, Calif.) followed by transfer on to 0.2-μm nitrocellulose membrane (Bio-Rad, Hercules, Calif.). Aβ was detected by using monoclonal antibody W02, which detects residues 5 through 8, 17 (or another suitable antibody) in conjunction with horseradish peroxidase-conjugated rabbit anti-mouse IgG (Dako, Denmark), and visualized by using enhanced chemiluminescence (eg ECL; Amersham Life Science, Buckinghamshire, UK). […]
All samples were analysed several times, and gel loadings and dilutions were adjusted to fit within the quantifiable region of the standard curve. […]

[2] = Assay 16 Determination of mouse plasma levels of test compounds; assay type: in vivo; details: for Conc. in mouse plasma: oral 30 mg/kg
Text: [formula] [formula] [formula] • CLtotal=total plasma clearance after IV administration • Vdβ=volume of distribution during the elimination phase after IV administration • BA=oral bioavailability • AUCIV=area under the plasma concentration versus time profile from time zero to infinity after IV administration • AUCoral=area under the plasma concentration versus time profile from time zero to infinity after oral administration • β=terminal elimination rate constant after IV administration Assay 16 Determination of Mouse Plasma Levels of Test Compounds PBT 1061
(§1) Oral administration of PBT 1061 at 30 mg/kg, as a suspension in Na-Carboxymethyl Cellulose (CMC) was administered by oral gavage to four mice. Two mice were sacrificed 30 minutes after administration and two mice were sacrificed 60 minutes after administration. Blood was obtained by cardiac puncture and plasma separated by centrifugation.
The concentration of PBT1061 was determined by LC/MS using the ZQ instrument. The mobile phase consisted of an acetonitrile (ACN)/water gradient (containing 0.05% Formic acid) and the column was a Phenomenex Polar-RP […] 80A (50×2 mm) column.
The mouse plasma samples were directly injected following a protein precipitation with ACN. The analytical method in plasma was linear in the range of 125 to 10,000 ng/ml (R^2=0.9992). Diazepam was used as the internal standard. Recovery of PBT1061 from plasma was ˜100%.
as §1, with “1063” for “1061”
The concentration of PBT1063 was determined by LC/MS using the single quadrupole instrument. The mobile phase consisted of an acetonitrile (ACN)/water gradient (containing 0.05% Formic acid) and the column was a Phenomenex C8 4 μm 80A (50×2 mm) column.
The supplied acute toxicity mouse plasma samples (delivered Feb. 9, 2003) were directly injected following a protein precipitation with ACN. Concentrations were determined by comparison to a calibration curve prepared in rat plasma. The analytical method in plasma was linear in the range of 312 to 10,000 ng/ml (R^2=0.9976). Diazepam was used as the internal standard. Recovery of PBT1063 from plasma was ˜42.9%.

SMILES | Assay 9 Brain amyloid solubilisation [1] | Conc. in mouse plasma ([2]; 30 min, individual mouse) | Conc. in mouse plasma ([2]; 60 min, individual mouse) | concentration at 30 min ([2]; mouse, plasma, po, 30 mg/kg, 30 min, individual mouse (Table 2), read-out: Conc. in mouse plasma) | concentration at 60 min ([2]; mouse, plasma, po, 30 mg/kg, 60 min, individual mouse (Table 2), read-out: Conc. in mouse plasma) | Conc. in mouse plasma ([2]; 30 min, individual mouse (Table 2)) | Conc. in mouse plasma ([2]; 60 min, individual mouse (Table 2))
Oc1c(N2CCOCC2)ncc2cccnc12 [PBT-1053, 7-Morpholin-4-yl-[1,6]naphthyridin-8-ol] | (+) | – | – | – | – | – | –
O=c1c2c(Cl)cc(Cl)c(O)c2ncn1C1CC1 [PBT-1061, 5,7-Dichloro-3-cyclopropyl-8-hydroxy-3H-quinazolin-4-one] | (+) | 1826.61 ng/mL and 5475.88 ng/mL | 2417.55 ng/mL and 1115.24 ng/mL | – | – | – | –
O=c1c(-c2ccc(Cl)cc2)cnc2c(O)c(I)ccn12 [PBT-1063, 3-(4-Chlorophenyl)-9-hydroxy-8-iodopyrido[1,2-a]pyrimidin-4-one] | – | – | – | 413 ng/mL | 331 ng/mL | 279.39 ng/mL | 439.49 ng/mL
